Test results published in ChEMBL document CHEMBL1949623, “Camphorsulfonic acid catalysed facile tandem double Friedlander annulation protocol for the synthesis of phenoxy linked bisquinoline derivatives and discovery of antitubercular agents” (Bioorg Med Chem Lett, 2012).

Tested on: NIH3T3
Test: Cytotoxicity against mouse NIH/3T3 cells assessed as cell viability after 48 hrs by MTT assay
Assay type: cell-based
Conditions: NIH3T3, 48 h

Row | SMILES | IC50 [µM]
1 | Clc1ccc2nc(-c3ccc(Oc4c(-c5ccc(Br)cc5)nc5ccc(Cl)cc5c4-c4ccccc4)cc3)cc(-c3ccccc3)c2c1 | 333
2 | Clc1ccc2nc(-c3ccc(Oc4c(-c5cccc(Br)c5)nc5ccc(Cl)cc5c4-c4ccccc4)cc3)cc(-c3ccccc3)c2c1 | 887
